# Target: Human immunodeficiency virus type 1 protease (Human immunodeficiency virus 1, UniProt Q72874)
# Assay: Inhibitory activity against HIV-I protease.
row,Ki [nM],Structure (SMILES)
1,450,O=C(Nc1ccccc1)Nc1cccc(C(c2c(O)oc3c(c2=O)CCCCCC3)C2CC2)c1 (stereo unspecified)
2,33,CCC1CCCCCCc2c1oc(O)c(C(c1ccccc1)C1CC1)c2=O (stereo unspecified)
3,58.3,CCC(c1ccccc1)c1c(O)c2c(oc1=O)CCCCCCC2 (stereo unspecified)
4,96,O=c1c2c(oc(O)c1C(c1ccccc1)C1CC1)CCCCCC2 (stereo unspecified)
5,42,O=C(Nc1cccc(C(c2c(O)oc3c(c2=O)CCCCCC3)C2CC2)c1)c1ccccc1 (stereo unspecified)
6,57,O=c1c2c(oc(O)c1C(C1CC1)C1CC1)CCCCCCC2
7,470,O=C(/C=C/c1ccccc1)Nc1cccc(C(c2c(O)oc3c(c2=O)CCCCCC3)C2CC2)c1 (stereo unspecified)
8,33,O=C(Cc1ccccc1)Nc1cccc(C(c2c(O)oc3c(c2=O)CCCCCC3)C2CC2)c1 (stereo unspecified)
9,120,O=c1c2c(oc(O)c1C(c1ccccc1)C1CC1)C(CC1CCCCO1)CCCCCC2 (stereo unspecified)
10,24,O=c1c2c(oc(O)c1C(c1ccccc1)C1CC1)C(CC1CC1)CCCCC2 (stereo unspecified)
11,28,COCCC1CCCCCc2c1oc(O)c(C(c1ccccc1)C1CC1)c2=O (stereo unspecified)
12,330,CCC(c1ccccc1)c1c(O)c2c(oc1=O)C(C)CCCCCC2 (stereo unspecified)
13,4,CC(C)(C)OC(=O)NCCC(=O)Nc1cccc(C(c2c(O)c3c(oc2=O)CCCCCC3)C2CC2)c1 (stereo unspecified)
14,55,O=C(Nc1cccc(C(c2c(O)oc3c(c2=O)CCCCCC3)C2CC2)c1)c1ccc(F)cc1 (stereo unspecified)
15,11.7,OC1=C(C(c2ccccc2)C2CC2)COC2=C1CCCCCCC2 (stereo unspecified)
16,50,CC(C)CCC1CCCCCCc2c1oc(O)c(C(c1ccccc1)C1CC1)c2=O (stereo unspecified)

# Further lines, the molecule ahead of its results:
row,Structure (SMILES),Ki [nM]
1,CCCC(=O)Nc1cccc(C(c2c(O)c3c(oc2=O)CCCCCC3)C2CC2)c1 (stereo unspecified),24
2,CC(C)(C)OC(=O)N[C@@H](Cc1cnc[nH]1)C(=O)Nc1cccc(C(c2c(O)c3c(oc2=O)CCCCCC3)C2CC2)c1 (stereo partly specified),3
3,C[C@H](NC(=O)OC(C)(C)C)C(=O)Nc1cccc(C(c2c(O)c3c(oc2=O)CCCCCC3)C2CC2)c1 (stereo partly specified),6.9
4,CC(C)(C)OC(=O)N[C@H](Cc1cnc[nH]1)C(=O)Nc1cccc(C(c2c(O)c3c(oc2=O)CCCCCC3)C2CC2)c1 (stereo partly specified),11
5,CC(C)(C)OC(=O)N1CCC[C@H]1C(=O)Nc1cccc(C(c2c(O)c3c(oc2=O)CCCCCC3)C2CC2)c1 (stereo partly specified),43
6,C[C@@H](NC(=O)OC(C)(C)C)C(=O)Nc1cccc(C(c2c(O)c3c(oc2=O)CCCCCC3)C2CC2)c1 (stereo partly specified),32
7,CC(C)(C)OC(=O)NCC(=O)Nc1cccc(C(c2c(O)c3c(oc2=O)CCCCCC3)C2CC2)c1 (stereo unspecified),5.5
8,CC(C)CC1CCCCCCc2c1oc(O)c(C(c1ccccc1)C1CC1)c2=O (stereo unspecified),30
9,CC(C)(C)OC(=O)NCCCC(=O)Nc1cccc(C(c2c(O)c3c(oc2=O)CCCCCC3)C2CC2)c1 (stereo unspecified),14
10,O=c1c2c(oc(O)c1C(c1ccccc1)C1CC1)C(CC1CC1)CCCCCC2 (stereo unspecified),24
11,CCC(c1ccccc1)c1c(O)c2c(oc1=O)C(Cc1ccccc1)CCCCCC2 (stereo unspecified),266
12,CCNC(=O)Nc1cccc(C(c2c(O)c3c(oc2=O)CCCCCC3)C2CC2)c1 (stereo unspecified),72
13,CCCC1CCCCCCc2c1oc(O)c(C(c1ccccc1)C1CC1)c2=O (stereo in doubt; 11e),9
14,CCCCC1CCCCCCc2c1oc(O)c(C(c1ccccc1)C1CC1)c2=O (stereo unspecified),31
15,CCCC1CCCCCCc2c1oc(O)c(C(c1ccccc1)C1CC1)c2=O (stereo in doubt; 11),26

# From ChEMBL document CHEMBL1128181, “Structure-based design of nonpeptidic HIV protease inhibitors from a cyclooctylpyranone lead structure” (J Med Chem, 1995)
